In PubChem BioAssay (NCI) one finds GI50 and TGI data, which are given here for 15 compounds.

Test systems include 786-0 renal; NCI-H460 lung; EKVX NSCLC; A498 renal; LOX IMVI melanoma; A549 NSCLC; OVCAR-8 ovarian; SK-MEL-28 melanoma; RPMI-8226 leukemia; SF-295 CNS.
Assay in all cases: growth of human tumour cells (NCI), 48 h

Where “and” joins values, the source holds several entries; their conditions need not be identical. Equal values may be shown once.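 Dose response: 5 concentrations. Exposure: 48 h. Format: 96-well plates. Endpoint: linear interpolation; highest concentration if not reached. Here, GI50 denotes the concentration required for 50% inhibition of growth. TGI: total growth inhibition.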

Turning to `CC(C)=CCC/C(C)=C/CC/C(=C/COP(=O)(OCc1ccc([N+](=O)[O-])o1)N(C)CCCCCl)C(C)(C)C` (stereo unspecified), the GI50 with 786-0 renal was 2.53 µM; in the assay on NCI-H460 lung it was 5 µM; in the assay on EKVX NSCLC it was 6.48 µM; in the assay with A498 renal, 0.125 µM; with LOX IMVI melanoma it was 1.28 µM; in the assay with A549 NSCLC, 10.9 µM. Besides, the GI50 was 10.7 µM in the assay on OVCAR-8 ovarian, 17.1 µM with SK-MEL-28 melanoma and 1.45 µM in the assay on RPMI-8226 leukemia. The TGI with 786-0 renal was 8.18 µM; in the assay with NCI-H460 lung it was 11.5 µM; with EKVX NSCLC, 22.4 µM; with A498 renal it was 2.16 µM; in the assay with LOX IMVI melanoma, 4.68 µM; in the assay with A549 NSCLC, 27.5 µM. The TGI is 36.1 µM in the assay with OVCAR-8 ovarian, 37.5 µM in the assay on SK-MEL-28 melanoma and 12.3 µM in the assay with RPMI-8226 leukemia.

On to `COC1CC2CCC(C)[C@](O)(O2)C(=O)C(=O)N2CCCCC2C(=O)OC(C(C)CC2CCC(O)C(OC)C2)CC(=O)C(C)C=C(C)C(OC(=O)CN(C)C)C(OC)C(=O)C(C)CC(C)/C=C/C=C/C=C\1C` (stereo partly specified), for which the TGI in the assay with SF-295 CNS stood at 20.7 µM; with 786-0 renal, 24.7 µM; in the assay on NCI-H460 lung it was 21.7 µM; in the assay with EKVX NSCLC, 20.3 µM; in the assay on A498 renal, 11.9 µM; with LOX IMVI melanoma, 16.7 µM. Besides, the figures for the TGI with A549 NSCLC, in the assay with OVCAR-8 ovarian and in the assay on SK-MEL-28 melanoma were 26.9 µM, 62.5 µM and 20.7 µM, respectively.

For the compound `Cc1ccc2[nH]c(=O)c(C(C#N)c3ccccc3)nc2c1` (stereo unspecified), the TGI is above 100 µM in the assay with SF-295 CNS; above 100 µM with 786-0 renal; above 100 µM with NCI-H460 lung; 84 µM in the assay with EKVX NSCLC; above 100 µM with A498 renal; above 100 µM with LOX IMVI melanoma. Also, the TGI in the assay with A549 NSCLC, in the assay on SK-MEL-28 melanoma and with RPMI-8226 leukemia was above 100 µM throughout.

For `C/C(=C\c1ccn(-c2ccc(N)cc2)n1)[C@@H]1C[C@@H]2O[C@]2(C)CCC[C@H](C)[C@H](O)[C@@H](C)C(=O)C(C)(C)[C@@H](O)CC(=O)O1`, the GI50 with SF-295 CNS was 0.0721 µM; with 786-0 renal it was 0.174 µM; in the assay with NCI-H460 lung, 0.0202 µM; with EKVX NSCLC, 0.256 µM; in the assay on A498 renal, 0.102 µM; in the assay with LOX IMVI melanoma, 0.0273 µM. Besides, the GI50 in the assay with A549 NSCLC is 0.0348 µM; in the assay with OVCAR-8 ovarian, 0.0481 µM; in the assay with RPMI-8226 leukemia, 0.0214 µM. The TGI with SF-295 CNS was above 50 µM; with 786-0 renal, above 50 µM; with NCI-H460 lung, above 50 µM; in the assay with EKVX NSCLC, above 50 µM; in the assay with A498 renal, 3.66 µM; in the assay on LOX IMVI melanoma it was above 50 µM. The TGI in the assay on A549 NSCLC, with OVCAR-8 ovarian and with RPMI-8226 leukemia was above 50 µM throughout.

In the case of `COc1ccc2c(c1)[n+]([O-])c(-c1nc3ccccc3s1)c(N)[n+]2[O-]`, the TGI with SF-295 CNS, with 786-0 renal, in the assay with NCI-H460 lung, in the assay with EKVX NSCLC, with A498 renal and in the assay on A549 NSCLC was above 100 µM throughout. The TGI with OVCAR-8 ovarian, in the assay with SK-MEL-28 melanoma and with RPMI-8226 leukemia was above 100 µM throughout.

On to `Clc1ccc(CO/N=C(\Cn2ccnc2)c2ccc(Cl)cc2Cl)c(Cl)c1`, for which the GI50 in the assay on 786-0 renal is 1.66 µM; with EKVX NSCLC, 1.43 µM; in the assay on A498 renal it was 1.32 µM; in the assay on LOX IMVI melanoma it was 1.45 µM; in the assay on A549 NSCLC, 1.55 µM; with SK-MEL-28 melanoma, 1.67 µM. The GI50 in the assay on RPMI-8226 leukemia was 1.45 µM. In addition, the TGI with 786-0 renal came to 3.14 µM; in the assay with EKVX NSCLC, 2.83 µM; with A498 renal it was 2.65 µM; in the assay on LOX IMVI melanoma, 3.21 µM; in the assay with A549 NSCLC it was 3.32 µM; in the assay on SK-MEL-28 melanoma it was 3.07 µM. In the assay with RPMI-8226 leukemia, this compound came in with a TGI of 4.52 µM.

As to `CNC1C(O)CC(OC2C/C=C(\C)C/C(C)=C/C=C/CCC(C)CNC(=O)/C=C/C=C/C2C)OC1C` (stereo unspecified), the TGI in the assay on SF-295 CNS was 0.682 µM; in the assay on 786-0 renal, 0.294 µM; in the assay with NCI-H460 lung, 0.317 µM; in the assay with EKVX NSCLC, 3 µM; with A498 renal, 3.24 µM; in the assay with LOX IMVI melanoma, 0.263 µM. Moreover, the TGI in the assay with OVCAR-8 ovarian stood at 1.18 µM; in the assay on SK-MEL-28 melanoma, 2.97 µM; with RPMI-8226 leukemia, 0.548 µM.

Take `Nc1ccn([C@@H]2C=C(CO)[C@@H](O)[C@H]2O)c(=O)n1`: the TGI in the assay with SF-295 CNS is 316 µM and > 625 µM; in the assay on 786-0 renal, 500 µM; in the assay with NCI-H460 lung it was 2.27 µM and 9.48 µM and 8.82 µM; in the assay with EKVX NSCLC, 134 µM; in the assay with OVCAR-8 ovarian, 67 µM and > 625 µM; in the assay with SK-MEL-28 melanoma it was 500 µM and > 625 µM. Besides, the GI50 in the assay on 786-0 renal was 0.257 µM; with EKVX NSCLC, 2.77 µM; with A498 renal, 0.242 µM; in the assay with RPMI-8226 leukemia, 0.0128 µM and 0.0635 µM and 0.126 µM.

With `C[C@]12CCC(=O)C=C1CC[C@@H]1[C@@H]2CC[C@]2(C)C(=O)/C(=C/c3cccc(OCCN4CCOCC4)c3)C[C@@H]12`, the GI50 is 3.74 µM in the assay with SF-295 CNS; 12.8 µM with 786-0 renal; 7.11 µM in the assay with NCI-H460 lung; 5.57 µM in the assay on EKVX NSCLC; 18.5 µM in the assay with A498 renal; 9.44 µM in the assay on LOX IMVI melanoma. In addition, the GI50 with A549 NSCLC is 7.17 µM; with OVCAR-8 ovarian, 6.28 µM; in the assay with SK-MEL-28 melanoma, 11.9 µM. Also, the TGI in the assay on SF-295 CNS was 16.6 µM; in the assay on 786-0 renal, above 100 µM; in the assay with NCI-H460 lung, 30.1 µM; in the assay with EKVX NSCLC it was 42.3 µM; in the assay with A498 renal, 36.1 µM; with LOX IMVI melanoma it was 26.6 µM. Also, the values for the TGI with A549 NSCLC, in the assay on OVCAR-8 ovarian and in the assay with SK-MEL-28 melanoma were 89.5 µM, above 100 µM and 29.8 µM, respectively.

In the case of `O=C(O)/C(Cl)=C(\Cl)C(=O)Nc1ccccc1`, the TGI in the assay on SF-295 CNS, with 786-0 renal, in the assay with NCI-H460 lung, in the assay on EKVX NSCLC, in the assay with A498 renal and with LOX IMVI melanoma was above 100 µM throughout. Besides, the TGI with A549 NSCLC, in the assay on SK-MEL-28 melanoma and in the assay with RPMI-8226 leukemia was above 100 µM in each case.

Take `[N-]=[N+]=CC(=O)OCC(N)C(=O)O` (stereo unspecified): the GI50 was 0.856 µM in the assay on 786-0 renal; 1.27 µM in the assay with NCI-H460 lung; 3.13 µM in the assay on EKVX NSCLC; 57.6 µM in the assay on A498 renal; 0.485 µM with LOX IMVI melanoma; 0.711 µM in the assay on A549 NSCLC. For the same compound, the GI50 was 0.923 µM in the assay on OVCAR-8 ovarian, 2.94 µM in the assay with SK-MEL-28 melanoma and 1.8 µM with RPMI-8226 leukemia. Also, the TGI in the assay with 786-0 renal is above 100 µM; in the assay with NCI-H460 lung it was 16.4 µM; in the assay on EKVX NSCLC it was above 100 µM; with A498 renal it was above 100 µM; in the assay with LOX IMVI melanoma it was above 100 µM; in the assay with A549 NSCLC, 2.86 µM. Further, the TGI in the assay on OVCAR-8 ovarian, in the assay with SK-MEL-28 melanoma and in the assay with RPMI-8226 leukemia was above 100 µM each time.

Regarding `CCN(CC)CCOc1cc2c(C(=O)OC)c(C)oc2cc1C(C)=O`, the GI50 is 14.8 µM in the assay on SF-295 CNS; 13.1 µM in the assay with 786-0 renal; 29.9 µM with NCI-H460 lung; 8.75 µM in the assay on EKVX NSCLC; 53 µM in the assay on A498 renal; 10.2 µM in the assay with LOX IMVI melanoma. Further, the values for the GI50 in the assay with A549 NSCLC, with OVCAR-8 ovarian and in the assay on RPMI-8226 leukemia were 18.5 µM, 13.4 µM and 2.76 µM, respectively. Further, the TGI in the assay with SF-295 CNS is 29.1 µM; in the assay with 786-0 renal it was 25.9 µM; with NCI-H460 lung it was 91.8 µM; in the assay on EKVX NSCLC, 22.1 µM; in the assay with A498 renal, above 100 µM; with LOX IMVI melanoma, 22 µM. The TGI in the assay on A549 NSCLC turned out to be 38.4 µM; in the assay on OVCAR-8 ovarian it was 30.3 µM; with RPMI-8226 leukemia, 7.39 µM.

Take `CC1C2=CC=C(O2)C(C)(C)C2=CC=C(O2)C(C)(C)C2=CC=C(O2)C(C)(C)C2=CC=C1O2`: the TGI with SF-295 CNS, with 786-0 renal, with NCI-H460 lung, in the assay on EKVX NSCLC, with A498 renal and in the assay on LOX IMVI melanoma was above 100 µM each time. The TGI with A549 NSCLC, in the assay with OVCAR-8 ovarian and with SK-MEL-28 melanoma was above 100 µM in each case.

As for `Nc1nc(N)c(-c2ccc(Cl)cc2)c(CCC(=O)Nc2cccc(C(F)(F)F)c2)n1`, the TGI in the assay with SF-295 CNS, in the assay with 786-0 renal, in the assay on NCI-H460 lung, in the assay on EKVX NSCLC, with A498 renal and with LOX IMVI melanoma was above 100 µM each time. Moreover, the TGI in the assay with A549 NSCLC, with OVCAR-8 ovarian and in the assay on SK-MEL-28 melanoma was above 100 µM each time.

As to `CN=S(=O)(C[C@]1(O)CC2OC1C1OC(C)(C)OC21)c1ccccc1` (stereo partly specified), the TGI in the assay on SF-295 CNS, with 786-0 renal, in the assay with NCI-H460 lung, in the assay on EKVX NSCLC, in the assay with A498 renal and in the assay with A549 NSCLC was above 100 µM each time. The TGI in the assay on OVCAR-8 ovarian, in the assay on SK-MEL-28 melanoma and in the assay with RPMI-8226 leukemia was above 100 µM in each case.
